The experiment concerns the target T1, ADAMTS-4 (Homo sapiens, UniProt O75173).
T1 construct: made in house
T1 sequence (O75173 213-837): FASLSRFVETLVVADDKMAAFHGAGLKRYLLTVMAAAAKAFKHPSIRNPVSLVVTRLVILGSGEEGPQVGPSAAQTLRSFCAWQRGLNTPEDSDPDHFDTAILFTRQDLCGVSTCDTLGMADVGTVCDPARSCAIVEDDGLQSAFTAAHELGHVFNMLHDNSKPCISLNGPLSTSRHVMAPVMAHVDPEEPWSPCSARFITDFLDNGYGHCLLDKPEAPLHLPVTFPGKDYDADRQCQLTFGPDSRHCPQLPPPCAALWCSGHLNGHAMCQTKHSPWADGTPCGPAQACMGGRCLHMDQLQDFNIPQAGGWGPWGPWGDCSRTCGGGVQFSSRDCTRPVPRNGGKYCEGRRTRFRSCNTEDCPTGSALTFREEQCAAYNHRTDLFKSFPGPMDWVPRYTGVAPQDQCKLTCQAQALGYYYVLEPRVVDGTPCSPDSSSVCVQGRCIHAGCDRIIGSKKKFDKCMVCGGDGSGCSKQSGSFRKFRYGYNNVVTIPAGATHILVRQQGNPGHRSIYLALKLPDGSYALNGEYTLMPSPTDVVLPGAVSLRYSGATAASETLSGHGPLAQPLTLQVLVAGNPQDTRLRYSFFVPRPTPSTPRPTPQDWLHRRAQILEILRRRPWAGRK
Description: QF peptide cleavage assay, ADAMTS-4. Format: biochemical. Particulars: 12-residue QF peptide substrate; mean ± SEM (n = 3); read-out: IC50 (μM) QF peptide ATS4. As to the method:
All enzyme assays were conducted in TNC-B buffer (50 mM Tris–HCl, pH 7.5, 150 mM NaCl, 10 mM CaCl2, and 0.02% NaN3) at 37 °C. To avoid the formation of inhibitor aggregates, the detergent Brij-35 (0.05%) was added to the assay buffer. No aggregation was visually observed at concentrations up to 2 mM. The inhibitor stock solutions in DMSO (10 mM) were diluted at different concentrations in assay buffer and incubated with ADAMTS-4 or ADAMTS-5 for 2 h at 37 °C. Percent of inhibition was calculated from control reactions containing only DMSO. IC50 values were determined using the formula: vi/v0 = 1/(1 + [I]/IC50) where vi is the initial velocity of substrate cleavage in the presence of the inhibitor at concentration [I] and v0 is the initial velocity in the presence of an equal concentration (v/v) of DMSO.
QF peptide cleavage assays were conducted in 96-well black microtiter plates (Scientific Laboratories Supplies Ltd, Wilford, UK) using a Fluostar Omega microplate reader (BMG Labtech, Aylesbury, UK). The activity of ADAMTS-4 (1 nM) and -5 (5 nM) was monitored for 2 h using the fluorescent peptide substrates fluorescein 5(6)-carbonyl-Ala-Glu-Leu-[…]-Gly-Arg-Pro-Ile-Ser-Ile-Ala-Lys-N,N,N0,N0-tetramethyl-6-carboxyrhodamine-NH2 (FAM-AE ~ LQGRPISIAK-TAMRA, ADAMTS-4) and fluorescein 5(6)-carbonyl-Thr-Glu-Ser-Glu ~ Ser-Arg-Gly-Ala-Ile-Tyr-Lys-Lys-N,N,N0,N0-tetramethyl-6-carboxyrhodamine-NH2 (FAM-TESE ~ SRGAIYKK-TAMRA, ADAMTS-5) (custom-synthesized by Bachem, Bubendorf, Switzerland) with an excitation wavelength of 485 nm and an emission wavelength of 538 nm. Final substrate concentrations were 1 μM and 40 μM for ADAMTS-4 and -5, respectively. Fluorescence was expressed in relative fluorescence units (RFU) and normalized against a blank containing only buffer and substrate. Emission spectra were recorded at several concentrations of each compound to exclude auto-fluorescence and maximal inhibitor concentrations were selected accordingly.

Our source for the IC50 values is publication PMC7806935, “Exosite inhibition of ADAMTS-5 by a glycoconjugated arylsulfonamide” (Scientific Reports, 2021).

Usually IC50 stands for the concentration that inhibits the measured activity by half.

A value given as a limit tells only on which side of the number the result lay.

`CCC(C)N(Cc1cn(CCCOC2OC(CO)C(O)C(O)C2NC(C)=O)nn1)S(=O)(=O)c1ccc(-c2ccccc2)cc1` (mixture of isomers) [Compound 4b]: the IC50 is > 50 µM.

Take `CCC(C)N(Cc1cn(CCCOC(=O)c2ccccc2)nn1)S(=O)(=O)c1ccc(-c2ccccc2)cc1` (racemic) [Compound 6]: the IC50 was > 50 µM.
